Reference: patent US8802849B2, “Tricyclic benzo[4,5]thieno-[2,3-d]pyrimidine-4-yl-amin derivatives, their salts, process for producing the compounds and their pharmaceutical use” (Vichem Chemie Kutató Kft., priority 2008, dated 2014)

Tests used:
Jnk1a1 = Jnk1a1 (Homo sapiens, UniProt P45983); experiment: Jnk1a1 kinase assay; assay type: biochemical; conditions: 10 μM compound; read-out: Jnk1a1 percent of inhibition
In short: (§1)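 Compound was diluted into buffer to 10 μM and mixed with kinase at a level giving 10% ATP turnover, substrate at five times its Km, and ATP at KmATP spiked with [γ-33P]ATP. After 1 hour at room temperature, EDTA ended the reaction and filter-bound radioactivity was counted.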

PDGFR-beta = PDGFR-beta (Homo sapiens, UniProt P09619); experiment: PDGFR-beta kinase assay; assay type: biochemical; conditions: 10 μM compound; read-out: PDGFR-beta percent of inhibition
In short: as §1

P56Lck = P56Lck (Homo sapiens, UniProt P06239); experiment: P56Lck kinase assay; assay type: biochemical; conditions: 10 μM compound; read-out: P56Lck percent of inhibition
P56Lck, sequence (P06239 whole entry, species assumed): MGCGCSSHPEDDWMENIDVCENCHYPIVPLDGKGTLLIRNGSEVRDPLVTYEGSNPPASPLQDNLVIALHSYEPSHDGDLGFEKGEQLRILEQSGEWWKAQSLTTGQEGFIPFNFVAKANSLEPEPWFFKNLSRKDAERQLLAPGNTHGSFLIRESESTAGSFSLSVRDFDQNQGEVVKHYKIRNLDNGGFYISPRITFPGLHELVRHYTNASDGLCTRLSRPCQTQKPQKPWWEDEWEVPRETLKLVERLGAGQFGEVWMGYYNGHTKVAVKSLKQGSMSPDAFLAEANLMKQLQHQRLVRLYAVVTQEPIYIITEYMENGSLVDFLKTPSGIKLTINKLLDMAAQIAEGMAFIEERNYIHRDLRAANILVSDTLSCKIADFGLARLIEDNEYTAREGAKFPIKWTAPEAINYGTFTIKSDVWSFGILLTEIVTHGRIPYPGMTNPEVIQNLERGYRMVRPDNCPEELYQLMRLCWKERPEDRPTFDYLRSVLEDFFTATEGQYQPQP
In short: as §1

IKK-beta = target: T1, IKK-beta (Homo sapiens, UniProt O14920); experiment: IKK-beta kinase assay; assay type: biochemical; conditions: 10 μM compound; read-out: IKK-beta percent of inhibition
T1 sequence (O14920 1-756): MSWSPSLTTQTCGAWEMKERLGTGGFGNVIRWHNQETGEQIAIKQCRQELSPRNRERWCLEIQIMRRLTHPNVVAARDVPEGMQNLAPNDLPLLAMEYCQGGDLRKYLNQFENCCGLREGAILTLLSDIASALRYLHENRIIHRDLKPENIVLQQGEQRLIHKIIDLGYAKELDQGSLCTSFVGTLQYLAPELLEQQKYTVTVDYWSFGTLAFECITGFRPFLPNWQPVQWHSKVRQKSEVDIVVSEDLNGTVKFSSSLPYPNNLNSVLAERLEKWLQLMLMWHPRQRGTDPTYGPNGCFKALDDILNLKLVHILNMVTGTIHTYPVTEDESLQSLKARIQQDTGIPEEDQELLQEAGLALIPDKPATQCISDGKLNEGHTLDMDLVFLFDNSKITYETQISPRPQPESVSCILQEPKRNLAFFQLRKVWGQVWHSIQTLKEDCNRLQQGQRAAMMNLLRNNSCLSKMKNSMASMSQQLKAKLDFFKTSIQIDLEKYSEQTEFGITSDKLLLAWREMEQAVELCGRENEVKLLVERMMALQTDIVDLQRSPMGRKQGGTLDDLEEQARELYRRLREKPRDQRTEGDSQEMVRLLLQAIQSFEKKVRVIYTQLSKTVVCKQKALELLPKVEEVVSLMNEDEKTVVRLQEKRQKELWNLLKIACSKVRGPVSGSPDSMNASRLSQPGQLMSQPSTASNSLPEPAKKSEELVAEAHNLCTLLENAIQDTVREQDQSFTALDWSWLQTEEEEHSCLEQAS
In short: as §1

SRPK1 = SRPK1 (Homo sapiens, UniProt Q96SB4); experiment: SRPK1 kinase assay; assay type: biochemical; conditions: 10 μM compound; read-out: SRPK1 percent of inhibition
In short: as §1

GSK-3beta = GSK-3beta (Homo sapiens, UniProt P49841); experiment: GSK-3beta kinase assay; assay type: biochemical; conditions: 10 μM compound; read-out: GSK-3beta percent of inhibition
GSK-3beta, sequence (P49841 whole entry, species assumed): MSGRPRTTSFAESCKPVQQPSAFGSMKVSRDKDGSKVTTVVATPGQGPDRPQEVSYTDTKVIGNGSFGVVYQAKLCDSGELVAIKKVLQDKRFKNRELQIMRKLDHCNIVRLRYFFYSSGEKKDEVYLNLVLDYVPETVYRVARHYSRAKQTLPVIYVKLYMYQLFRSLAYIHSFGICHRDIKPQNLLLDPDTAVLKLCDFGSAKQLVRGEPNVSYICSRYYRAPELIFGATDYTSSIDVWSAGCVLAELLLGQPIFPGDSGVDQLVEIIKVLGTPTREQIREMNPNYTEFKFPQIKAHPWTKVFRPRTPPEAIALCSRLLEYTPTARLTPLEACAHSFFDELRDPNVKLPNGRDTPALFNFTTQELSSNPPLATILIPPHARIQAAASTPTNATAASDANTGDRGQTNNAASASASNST
In short: as §1

ROCK2 = ROCK2 (Homo sapiens, UniProt O75116); experiment: ROCK2 kinase assay; assay type: biochemical; conditions: 10 μM compound; read-out: ROCK2 percent of inhibition
In short: as §1

c-Raf = c-Raf (Homo sapiens, UniProt P04049); experiment: c-Raf kinase assay; assay type: biochemical; conditions: 10 μM compound; read-out: c-Raf percent of inhibition
In short: as §1

MAPK-ERK1 = MAPK-ERK1 (Homo sapiens, UniProt P27361); experiment: MAPK-ERK1 kinase assay; assay type: biochemical; conditions: 10 μM compound; read-out: MAPK-ERK1 percent of inhibition
MAPK-ERK1, sequence (P27361 whole entry): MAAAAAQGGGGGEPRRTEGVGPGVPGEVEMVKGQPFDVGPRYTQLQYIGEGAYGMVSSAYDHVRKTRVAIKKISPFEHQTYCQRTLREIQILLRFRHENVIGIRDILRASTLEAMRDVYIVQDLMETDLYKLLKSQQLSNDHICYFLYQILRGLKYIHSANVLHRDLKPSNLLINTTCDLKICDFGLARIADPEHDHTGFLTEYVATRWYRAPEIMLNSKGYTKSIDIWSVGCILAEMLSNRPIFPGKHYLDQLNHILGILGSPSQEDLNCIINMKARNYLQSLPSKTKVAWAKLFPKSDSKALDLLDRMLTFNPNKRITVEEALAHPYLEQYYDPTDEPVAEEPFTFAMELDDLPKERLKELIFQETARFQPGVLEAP
In short: as §1

Kit = Kit (Homo sapiens, UniProt P10721); experiment: Kit kinase assay; assay type: biochemical; conditions: 10 μM compound; read-out: Kit percent of inhibition
In short: as §1

EGFR = EGFR (Homo sapiens, UniProt P00533); experiment: EGFR kinase assay (33P-ATP filter plate); assay type: biochemical; conditions: 10 μM compound; read-out: EGFR percent of inhibition
In short: as §1

RSK1 = RSK1 (Homo sapiens, UniProt Q15418); experiment: RSK1 kinase assay; assay type: biochemical; conditions: 10 μM compound; read-out: RSK1 percent of inhibition
In short: as §1

InsR = InsR (Homo sapiens, UniProt P06213); experiment: InsR kinase assay; assay type: biochemical; conditions: 10 μM compound; read-out: InsR percent of inhibition
InsR, sequence (P06213 28-1382, species assumed): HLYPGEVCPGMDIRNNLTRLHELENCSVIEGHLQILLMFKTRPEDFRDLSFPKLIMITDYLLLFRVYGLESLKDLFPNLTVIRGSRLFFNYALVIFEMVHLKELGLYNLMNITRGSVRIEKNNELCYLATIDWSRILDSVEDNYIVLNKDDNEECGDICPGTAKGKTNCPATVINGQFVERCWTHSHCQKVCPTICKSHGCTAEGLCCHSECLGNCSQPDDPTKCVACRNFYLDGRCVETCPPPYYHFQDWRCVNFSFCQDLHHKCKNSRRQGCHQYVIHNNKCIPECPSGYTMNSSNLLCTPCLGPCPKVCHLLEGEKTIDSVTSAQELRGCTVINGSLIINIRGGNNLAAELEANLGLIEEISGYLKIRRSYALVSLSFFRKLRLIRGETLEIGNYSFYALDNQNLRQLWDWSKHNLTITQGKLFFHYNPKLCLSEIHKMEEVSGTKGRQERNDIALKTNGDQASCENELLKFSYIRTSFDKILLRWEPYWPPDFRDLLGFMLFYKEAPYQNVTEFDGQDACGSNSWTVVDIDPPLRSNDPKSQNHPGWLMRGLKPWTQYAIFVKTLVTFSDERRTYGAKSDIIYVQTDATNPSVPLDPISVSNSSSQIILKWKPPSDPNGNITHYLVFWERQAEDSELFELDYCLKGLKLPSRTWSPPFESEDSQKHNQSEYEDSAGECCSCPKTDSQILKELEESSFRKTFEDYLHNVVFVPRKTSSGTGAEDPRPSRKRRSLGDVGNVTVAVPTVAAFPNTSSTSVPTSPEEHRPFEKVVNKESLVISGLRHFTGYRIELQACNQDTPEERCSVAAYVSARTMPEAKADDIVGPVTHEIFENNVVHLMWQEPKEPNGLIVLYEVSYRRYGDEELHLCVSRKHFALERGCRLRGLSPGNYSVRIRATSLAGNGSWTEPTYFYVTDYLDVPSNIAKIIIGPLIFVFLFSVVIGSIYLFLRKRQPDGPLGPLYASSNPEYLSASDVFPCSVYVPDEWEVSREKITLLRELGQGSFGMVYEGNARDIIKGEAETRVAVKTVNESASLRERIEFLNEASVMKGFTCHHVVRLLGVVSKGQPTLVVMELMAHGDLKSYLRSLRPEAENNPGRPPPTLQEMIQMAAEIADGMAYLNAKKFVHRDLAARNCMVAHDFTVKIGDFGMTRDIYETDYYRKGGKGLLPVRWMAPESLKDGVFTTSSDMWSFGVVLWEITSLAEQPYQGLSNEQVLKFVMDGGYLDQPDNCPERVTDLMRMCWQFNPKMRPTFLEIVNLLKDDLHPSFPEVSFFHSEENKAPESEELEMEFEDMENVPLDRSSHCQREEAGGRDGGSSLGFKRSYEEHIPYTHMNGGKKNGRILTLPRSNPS
In short: as §1

c-Src = c-Src (Homo sapiens, UniProt P12931); experiment: c-Src kinase assay; assay type: biochemical; conditions: 10 μM compound; read-out: c-Src percent of inhibition
c-Src, sequence (P12931 whole entry, species assumed): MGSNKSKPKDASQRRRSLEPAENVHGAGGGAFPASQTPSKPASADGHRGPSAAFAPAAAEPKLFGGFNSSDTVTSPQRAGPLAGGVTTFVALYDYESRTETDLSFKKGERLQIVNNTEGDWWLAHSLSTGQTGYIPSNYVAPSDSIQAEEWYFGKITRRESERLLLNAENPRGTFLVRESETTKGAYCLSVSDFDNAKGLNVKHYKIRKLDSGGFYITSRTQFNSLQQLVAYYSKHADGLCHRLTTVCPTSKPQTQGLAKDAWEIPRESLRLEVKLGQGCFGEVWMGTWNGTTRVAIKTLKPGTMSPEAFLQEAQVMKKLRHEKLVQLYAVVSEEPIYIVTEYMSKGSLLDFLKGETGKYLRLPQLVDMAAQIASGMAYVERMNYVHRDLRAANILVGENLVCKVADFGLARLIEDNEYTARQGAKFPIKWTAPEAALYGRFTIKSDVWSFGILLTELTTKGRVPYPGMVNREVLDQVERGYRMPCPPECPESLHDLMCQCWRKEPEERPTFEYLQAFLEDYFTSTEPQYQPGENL
In short: as §1

cMet = cMet (Homo sapiens, UniProt P08581); experiment: cMet kinase assay; assay type: biochemical; conditions: 10 μM compound; read-out: cMet percent of inhibition
In short: as §1

CDK2/CycA = CDK2/CycA (Homo sapiens, UniProt P24941); experiment: CDK2/CycA kinase assay; assay type: biochemical; conditions: 10 μM compound; read-out: CDK2/CycA percent of inhibition
In short: as §1

P70S6K = P70S6K (Homo sapiens, UniProt P23443); experiment: P70S6K kinase assay; assay type: biochemical; conditions: 10 μM compound; read-out: P70S6K percent of inhibition
In short: as §1

AKT1/PKBa = AKT1/PKBa (Homo sapiens, UniProt P31749); experiment: AKT1/PKBa kinase assay; assay type: biochemical; conditions: 10 μM compound; read-out: AKT1/PKBa percent of inhibition
In short: as §1

Abl = Abl (Homo sapiens, UniProt P00519); experiment: Abl kinase assay; assay type: biochemical; conditions: 10 μM compound; read-out: Abl percent of inhibition
Abl, sequence (P00519 whole entry, species assumed): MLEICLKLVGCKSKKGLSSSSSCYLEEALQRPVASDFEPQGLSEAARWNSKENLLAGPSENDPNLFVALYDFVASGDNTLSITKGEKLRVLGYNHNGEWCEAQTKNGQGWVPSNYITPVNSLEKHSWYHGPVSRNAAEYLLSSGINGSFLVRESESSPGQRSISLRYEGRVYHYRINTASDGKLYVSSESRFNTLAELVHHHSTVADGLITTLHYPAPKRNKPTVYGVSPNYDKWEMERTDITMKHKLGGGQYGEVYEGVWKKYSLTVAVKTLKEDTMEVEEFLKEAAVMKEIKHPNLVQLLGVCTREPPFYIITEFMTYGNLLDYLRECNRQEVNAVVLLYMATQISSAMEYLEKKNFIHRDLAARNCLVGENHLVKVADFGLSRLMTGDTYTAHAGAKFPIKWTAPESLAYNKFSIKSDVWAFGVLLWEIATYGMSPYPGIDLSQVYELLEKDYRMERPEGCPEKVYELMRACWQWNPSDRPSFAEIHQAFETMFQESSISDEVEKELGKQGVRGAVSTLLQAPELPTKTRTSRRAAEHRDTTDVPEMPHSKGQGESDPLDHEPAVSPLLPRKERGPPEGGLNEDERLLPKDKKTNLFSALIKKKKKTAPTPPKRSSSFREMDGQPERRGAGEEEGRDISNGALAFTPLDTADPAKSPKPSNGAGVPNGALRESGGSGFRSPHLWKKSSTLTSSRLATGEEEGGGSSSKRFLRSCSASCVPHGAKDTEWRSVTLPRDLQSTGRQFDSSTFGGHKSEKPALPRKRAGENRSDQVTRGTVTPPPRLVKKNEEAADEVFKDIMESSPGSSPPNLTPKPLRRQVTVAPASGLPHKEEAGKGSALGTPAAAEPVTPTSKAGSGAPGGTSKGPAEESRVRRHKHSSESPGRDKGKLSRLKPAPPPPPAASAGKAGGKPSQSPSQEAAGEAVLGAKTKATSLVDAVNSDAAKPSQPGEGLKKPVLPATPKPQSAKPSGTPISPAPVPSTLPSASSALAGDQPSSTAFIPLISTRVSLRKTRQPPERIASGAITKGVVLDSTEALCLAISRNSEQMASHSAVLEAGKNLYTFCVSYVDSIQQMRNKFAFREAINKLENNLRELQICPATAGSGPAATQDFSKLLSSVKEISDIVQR
In short: as §1

CK1-alpha = CK1-alpha (Homo sapiens, UniProt P48729); experiment: CK1-alpha kinase assay; assay type: biochemical; conditions: 10 μM compound; read-out: CK1-alpha percent of inhibition
CK1-alpha, sequence (P48729 whole entry): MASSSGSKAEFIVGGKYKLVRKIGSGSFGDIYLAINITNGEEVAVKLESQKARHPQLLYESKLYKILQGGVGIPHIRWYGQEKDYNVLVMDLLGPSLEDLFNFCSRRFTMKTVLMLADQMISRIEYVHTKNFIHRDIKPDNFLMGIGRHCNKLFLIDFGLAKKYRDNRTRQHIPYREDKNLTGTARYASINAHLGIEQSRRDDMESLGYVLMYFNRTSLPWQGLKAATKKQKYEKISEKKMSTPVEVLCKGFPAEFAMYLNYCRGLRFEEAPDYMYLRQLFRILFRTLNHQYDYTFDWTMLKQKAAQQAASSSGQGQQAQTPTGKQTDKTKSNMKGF
In short: as §1

Jnk1a1, sequence (P45983 1-384 isoform P45983-2): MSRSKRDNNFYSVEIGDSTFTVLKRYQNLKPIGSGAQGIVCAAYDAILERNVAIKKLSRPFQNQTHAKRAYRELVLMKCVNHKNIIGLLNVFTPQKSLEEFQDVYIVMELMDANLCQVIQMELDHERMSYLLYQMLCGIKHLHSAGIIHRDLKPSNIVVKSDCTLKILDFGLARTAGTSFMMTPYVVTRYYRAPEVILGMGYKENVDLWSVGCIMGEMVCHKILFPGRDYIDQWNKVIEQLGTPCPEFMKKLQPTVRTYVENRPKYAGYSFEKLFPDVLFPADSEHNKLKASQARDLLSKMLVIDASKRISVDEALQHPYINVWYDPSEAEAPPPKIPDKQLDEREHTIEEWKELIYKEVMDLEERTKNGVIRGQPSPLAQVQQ

Fc1cccc(Nc2nc(C3CC3)nc3sc4ccccc4c23)c1 [Compound 16, (2-Cyclopropyl-benzo[4,5]thieno[2,3-d]pyrimidin-4-yl)-(3-fluoro-phenyl)-amine]
inhibition at 10 µM (Jnk1a1): -4% | inhibition at 10 µM (PDGFR-beta): -3% | inhibition at 10 µM (P56Lck): 7% | inhibition at 10 µM (IKK-beta): -4% | inhibition at 10 µM (SRPK1): 10% | inhibition at 10 µM (GSK-3beta): 1% | inhibition at 10 µM (ROCK2): 9% | inhibition at 10 µM (c-Raf): -4% | inhibition at 10 µM (MAPK-ERK1): 6% | inhibition at 10 µM (Kit): -1% | inhibition at 10 µM (EGFR): 60% | inhibition at 10 µM (RSK1): 2% | inhibition at 10 µM (InsR): 2% | inhibition at 10 µM (c-Src): 2% | melting point: 193 °C | inhibition at 10 µM (cMet): 0% | inhibition at 10 µM (CDK2/CycA): -2% | inhibition at 10 µM (P70S6K): 8% | inhibition at 10 µM (AKT1/PKBa): -7% | inhibition at 10 µM (Abl): 3% | inhibition at 10 µM (CK1-alpha): 0%

Clc1cccc(Nc2nc(C3CC3)nc3sc4ccccc4c23)c1 [Compound 17, (2-Cyclopropyl-benzo[4,5]thieno[2,3-d]pyrimidin-4-yl)-(3-chloro-phenyl)-amine]
inhibition at 10 µM (Jnk1a1): -8% | inhibition at 10 µM (PDGFR-beta): 0% | inhibition at 10 µM (P56Lck): 9% | inhibition at 10 µM (IKK-beta): 8% | inhibition at 10 µM (SRPK1): 9% | inhibition at 10 µM (GSK-3beta): 3% | inhibition at 10 µM (ROCK2): 2% | inhibition at 10 µM (c-Raf): 12% | inhibition at 10 µM (MAPK-ERK1): 2% | inhibition at 10 µM (Kit): 11% | inhibition at 10 µM (EGFR): 86% | inhibition at 10 µM (RSK1): -7% | inhibition at 10 µM (InsR): -5% | inhibition at 10 µM (c-Src): 1% | melting point: 188 °C | inhibition at 10 µM (cMet): -5% | inhibition at 10 µM (CDK2/CycA): -2% | inhibition at 10 µM (P70S6K): 7% | inhibition at 10 µM (AKT1/PKBa): -1% | inhibition at 10 µM (Abl): 7% | inhibition at 10 µM (CK1-alpha): 0%

Brc1cccc(Nc2nc(C3CC3)nc3sc4ccccc4c23)c1 [Compound 18, (2-Cyclopropyl-benzo[4,5]thieno[2,3-d]pyrimidin-4-yl)-(3-bromo-phenyl)-amine]
inhibition at 10 µM (Jnk1a1): -7% | inhibition at 10 µM (PDGFR-beta): 0% | inhibition at 10 µM (P56Lck): 11% | inhibition at 10 µM (IKK-beta): 3% | inhibition at 10 µM (SRPK1): 12% | inhibition at 10 µM (GSK-3beta): 0% | inhibition at 10 µM (ROCK2): 4% | inhibition at 10 µM (c-Raf): -8% | inhibition at 10 µM (MAPK-ERK1): -6% | inhibition at 10 µM (Kit): 5% | inhibition at 10 µM (EGFR): 87% | inhibition at 10 µM (RSK1): -4% | inhibition at 10 µM (InsR): 5% | inhibition at 10 µM (c-Src): 22% | melting point: 180 °C | inhibition at 10 µM (cMet): -7% | inhibition at 10 µM (CDK2/CycA): -2% | inhibition at 10 µM (P70S6K): 2% | inhibition at 10 µM (AKT1/PKBa): 0% | inhibition at 10 µM (Abl): -2% | inhibition at 10 µM (CK1-alpha): 10%

Oc1cccc(Nc2nc(C3CC3)nc3sc4ccccc4c23)c1 [Compound 19, 3-(2-Cyclopropyl-benzo[4,5]thieno[2,3-d]pyrimidin-4-ylamino)-phenol]
inhibition at 10 µM (Jnk1a1): -2% | inhibition at 10 µM (PDGFR-beta): -1% | inhibition at 10 µM (P56Lck): 3% | inhibition at 10 µM (IKK-beta): 12% | inhibition at 10 µM (SRPK1): 3% | inhibition at 10 µM (GSK-3beta): 7% | inhibition at 10 µM (ROCK2): 7% | inhibition at 10 µM (c-Raf): -4% | inhibition at 10 µM (MAPK-ERK1): 2% | inhibition at 10 µM (Kit): 3% | inhibition at 10 µM (EGFR): 54% | inhibition at 10 µM (RSK1): -11% | inhibition at 10 µM (InsR): 11% | inhibition at 10 µM (c-Src): 11% | melting point: 222 °C | inhibition at 10 µM (cMet): -12% | inhibition at 10 µM (CDK2/CycA): -12% | inhibition at 10 µM (P70S6K): 3% | inhibition at 10 µM (AKT1/PKBa): -5% | inhibition at 10 µM (Abl): 3% | inhibition at 10 µM (CK1-alpha): 9%

COc1cccc(Nc2nc(C3CC3)nc3sc4ccccc4c23)c1 [Compound 20, (2-Cyclopropyl-benzo[4,5]thieno[2,3-d]pyrimidin-4-yl)-(3-methoxy-phenyl)-amine]
inhibition at 10 µM (Jnk1a1): -5% | inhibition at 10 µM (PDGFR-beta): -1% | inhibition at 10 µM (P56Lck): 0% | inhibition at 10 µM (IKK-beta): 9% | inhibition at 10 µM (SRPK1): 18% | inhibition at 10 µM (GSK-3beta): 0% | inhibition at 10 µM (ROCK2): 0% | inhibition at 10 µM (c-Raf): 9% | inhibition at 10 µM (MAPK-ERK1): 21% | inhibition at 10 µM (Kit): 8% | inhibition at 10 µM (EGFR): 46% | inhibition at 10 µM (RSK1): 7% | inhibition at 10 µM (InsR): -12% | inhibition at 10 µM (c-Src): 23% | melting point: 198 °C | inhibition at 10 µM (cMet): -2% | inhibition at 10 µM (CDK2/CycA): 4% | inhibition at 10 µM (P70S6K): 9% | inhibition at 10 µM (AKT1/PKBa): -2% | inhibition at 10 µM (Abl): 7% | inhibition at 10 µM (CK1-alpha): 3%
